{
  "source": "ChEMBL document CHEMBL1772992",
  "about": "“Synthesis, in silico docking experiments of new 2-pyrrolidinone derivatives and study of their anti-inflammatory activity” (Bioorg Med Chem, 2011)",
  "key": {"[1]": {"system": "Radical scavenging activity", "assay": "Antioxidant activity assessed as DPPH free radical scavenging activity after 20 to 60 mins by spectrophotometry", "type": "functional", "design": "concentration or dose not given beside the values"}, "Glycine max": {"system": "Glycine max", "assay": "Inhibition of soybean LOX assessed as inhibition of sodium linoleate to 13-hydroperoxylinoleic acid conversion at 0.1 mM by UV-visible spectrophotometry"}, "[2]": {"assay": "Antioxidant activity against AAPH-induced lipid peroxidation assessed as linoleic acid oxidation to diene hydroperoxide at 0.1 mM by UV-visible spectrophotometry", "type": "functional"}, "[3]": {"assay": "Inhibition of soybean LOX assessed as inhibition of sodium linoleate to 13-hydroperoxylinoleic acid conversion by UV-visible spectrophotometry", "design": "species or system Glycine max"}, "Rattus norvegicus": {"system": "Rattus norvegicus", "assay": "Antiinflammatory activity in Fisher 344 rat assessed as inhibition of carrageenan-induced paw edema at 0.01 mmol/kg, ip administered simultaneously with carrageenan measured after 3.5 hrs relative to control", "type": "functional", "settings": "Fisher 344, ip"}},
  "note": "The source made the active and inactive calls. No cut-off for these calls is given here.",
  "data": [
    {"smiles": "O=C(O)c1cncn1C[C@@H]1CCC(=O)N1Cc1ccccc1", "values": [
      {"measurement": "Activity", "setting": "[1]", "result": "inactive"},
      {"measurement": "inhibition", "setting": "Glycine max", "result": 81, "unit": "%"},
      {"measurement": "inhibition", "setting": "[2]", "result": "inactive"}
    ]},
    {"smiles": "O=C1CC[C@@H](Cn2ccnc2)N1Cc1ccccc1", "values": [
      {"measurement": "Activity", "setting": "[1]", "result": 9, "unit": "%"},
      {"measurement": "inhibition", "setting": "Glycine max", "result": 13, "unit": "%"},
      {"measurement": "inhibition", "setting": "[2]", "result": 11, "unit": "%"}
    ]},
    {"smiles": "O=C1CC[C@@H](Cn2ccnc2)N1Cc1ccccc1-c1nn[nH]n1", "values": [
      {"measurement": "Activity", "setting": "[1]", "result": 30, "unit": "%"},
      {"measurement": "inhibition", "setting": "Glycine max", "result": 5.2, "unit": "%"},
      {"measurement": "inhibition", "setting": "[2]", "result": 32, "unit": "%"}
    ]},
    {"smiles": "COC(=O)c1ccc(CN2C(=O)CC[C@H]2Cn2cncc2C(=O)O)cc1", "values": [
      {"measurement": "Activity", "setting": "[1]", "result": 3, "unit": "%"},
      {"measurement": "IC50", "setting": "[3]", "result": 70.5, "unit": "µM"},
      {"measurement": "inhibition", "setting": "[2]", "result": 96, "unit": "%"},
      {"measurement": "inhibition in vivo at 10 µmol/kg", "setting": "Rattus norvegicus", "result": 34, "unit": "%"}
    ]},
    {"smiles": "CC(Cc1ccc(O)c(O)c1)C(C)Cc1ccc(O)c(O)c1", "note": "(stereo not drawn)", "values": [
      {"measurement": "Activity", "setting": "[1]", "result": 81, "unit": "%"},
      {"measurement": "inhibition", "setting": "Glycine max", "result": 84, "unit": "%"}
    ]},
    {"smiles": "O=C1CC[C@@H](Cn2ccnc2)N1Cc1cccc(O)c1", "values": [
      {"measurement": "Activity", "setting": "[1]", "result": 29, "unit": "%"},
      {"measurement": "inhibition", "setting": "Glycine max", "result": "inactive"},
      {"measurement": "inhibition", "setting": "[2]", "result": 13, "unit": "%"}
    ]},
    {"smiles": "COc1ccc2c(c1)c(CC(=O)O)c(C)n2C(=O)c1ccc(Cl)cc1", "note": "[INDOMETHACIN]", "values": [
      {"measurement": "inhibition in vivo at 10 µmol/kg", "setting": "Rattus norvegicus", "result": 47, "unit": "%"}
    ]},
    {"smiles": "COC(=O)c1ccc(CN2C(=O)CC[C@H]2Cn2ccnc2)cc1", "values": [
      {"measurement": "Activity", "setting": "[1]", "result": 6, "unit": "%"},
      {"measurement": "inhibition", "setting": "Glycine max", "result": "inactive"},
      {"measurement": "inhibition", "setting": "[2]", "result": 13, "unit": "%"}
    ]},
    {"smiles": "O=C(O)c1ccc(CN2C(=O)CC[C@H]2Cn2ccnc2)cc1", "values": [
      {"measurement": "Activity", "setting": "[1]", "result": 6, "unit": "%"},
      {"measurement": "IC50", "setting": "[3]", "result": 80, "unit": "µM"},
      {"measurement": "inhibition", "setting": "[2]", "result": 2, "unit": "%"},
      {"measurement": "inhibition in vivo at 10 µmol/kg", "setting": "Rattus norvegicus", "result": 41, "unit": "%"}
    ]},
    {"smiles": "COC(=O)c1cncn1C[C@@H]1CCC(=O)N1Cc1ccc(C(=O)O)cc1", "values": [
      {"measurement": "Activity", "setting": "[1]", "result": 26, "unit": "%"},
      {"measurement": "inhibition", "setting": "Glycine max", "result": "inactive"},
      {"measurement": "inhibition", "setting": "[2]", "result": "inactive"}
    ]},
    {"smiles": "O=C(O)/C=C/c1ccc(O)c(O)c1", "note": "[CAFFEIC ACID]", "values": [
      {"measurement": "Activity", "setting": "[1]", "result": 5.5, "unit": "%"},
      {"measurement": "IC50", "setting": "[3]", "result": 600, "unit": "µM"},
      {"measurement": "inhibition", "setting": "[2]", "result": 17, "unit": "%"}
    ]},
    {"smiles": "Cc1c(C)c2c(c(C)c1O)CCC(C)(C(=O)O)O2", "note": "(stereo not drawn)", "values": [
      {"measurement": "inhibition", "setting": "[2]", "result": 63, "unit": "%"}
    ]}
  ]
}
